These results are taken from patent publication US20260217691A1, “FOXM1 INHIBITORS AND THEIR USE IN TREATING CANCERS” (THE BOARD OF TRUSTEES OF THE UNIVERSITY OF ILLINOIS, priority 2022, published 2026).

Series [1] relates to KG-1, HL-60, K562, THP-1 cells. It is filed as cell-based.
Series [2] addresses T1, FOXM1 (Homo sapiens, UniProt Q08050).
T1 sequence (Q08050 1-763): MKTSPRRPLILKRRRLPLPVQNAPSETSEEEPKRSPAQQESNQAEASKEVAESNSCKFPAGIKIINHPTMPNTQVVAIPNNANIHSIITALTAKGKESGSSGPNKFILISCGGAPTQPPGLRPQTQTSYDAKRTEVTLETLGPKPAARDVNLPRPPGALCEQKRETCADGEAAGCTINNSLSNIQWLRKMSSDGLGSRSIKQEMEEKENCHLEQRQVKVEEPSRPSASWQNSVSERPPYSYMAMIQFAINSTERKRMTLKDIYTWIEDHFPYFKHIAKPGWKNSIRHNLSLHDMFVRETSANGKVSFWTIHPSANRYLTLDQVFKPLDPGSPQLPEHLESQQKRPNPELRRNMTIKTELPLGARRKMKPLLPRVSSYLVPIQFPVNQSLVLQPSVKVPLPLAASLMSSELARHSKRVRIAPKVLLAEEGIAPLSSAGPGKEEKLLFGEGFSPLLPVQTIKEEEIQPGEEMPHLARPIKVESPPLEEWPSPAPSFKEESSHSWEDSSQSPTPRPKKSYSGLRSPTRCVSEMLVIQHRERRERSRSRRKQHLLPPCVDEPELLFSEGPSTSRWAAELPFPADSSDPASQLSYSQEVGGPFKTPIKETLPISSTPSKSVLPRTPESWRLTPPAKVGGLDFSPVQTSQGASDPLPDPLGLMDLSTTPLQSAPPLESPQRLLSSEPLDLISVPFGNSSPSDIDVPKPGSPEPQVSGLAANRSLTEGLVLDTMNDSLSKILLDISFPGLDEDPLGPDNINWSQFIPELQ
The series can be described thus: FOXM1 protein levels by immunoblotting in solid cancer cell lines. The note with it: ovarian cancer cells (ES-2, OVCAR-8). For orientation: A western blot detects proteins with antibodies after separation by electrophoresis.
Procedure: Cell culture: Human cell lines LNCaP and 22Rv1 (human prostate carcinoma), OVCAR8 and ES-2 (High-grade serous ovarian cancer, HGSOC), HCT-116 and HCT-FET (human colorectal carcinoma), HCC-1143 (triple negative breast cancer (TNBC), TAMR (Tamoxifen resistant MCF7) human breast cancer, were provided from various investigators. LNCaP and 22Rv1 cell lines were cultured in RPMI-1640 with 2 mM L-Glutamine (Gibco; Thermo Fisher Scientific, Waltham, MA, USA). HCC-1143 cell lines were cultured in Iscove's Modified Dulbecco Medium (IMDM) with 2 mM L-Glutamine (Gibco; Thermo Fisher Scientific). OVCAR-8, ES-2, HCT-116, and HCT-FET cell lines were cultured in Dulbecco's Modified Eagle Medium (DMEM) with 4.5 g/L glucose and 4 mM L-Glutamine (Gibco; Thermo Fisher Scientific). For all cell lines, the growth media was supplemented with 10% Foetal Bovine Serum (FBS), penicillin (100 U/mL), and 100 μg/mL streptomycin (Gibco; Thermo Fisher Scientific). TAMR cells were routinely cultured in DMEM/F12 medium without phenol red (Gibco; Thermo Fisher Scientific), containing 1% charcoal-striped FBS, 2.5 mM L-Glutamine (Thermo Fisher Scientific), 6 ng/mL insulin (Millipore Sigma) and 50 nM 4-hydroxytamoxifen (4-OHT; Millipore Sigma). All cell lines were grown and maintained at 37° C. in a humidified incubator with 5% CO2. Sub-confluent cultures (70-80%) were split 1:5 using 0.25% Trypsin/EDTA (Millipore Sigma).
Drug treatment of cultured cells: After harvesting, cells were counted in presence of Trypan Blue (Thermo Fisher Scientific) and seeded onto tissue culture plates to achieve ~50% confluency. The next day, treatment of cells was performed by aspirating the nonadherent cells and growth medium and replacing it with the fresh one containing selected concentrations of drugs. For Tamoxifen based studies, the nonadherent cells and growth media was aspirated and replaced with the DMEM supplemented with 4.5 g/L glucose and 4 mM L-Glutamine, 10% FBS, penicillin (100 U/mL), 100 μg/mL streptomycin, 10 nM estrogen, and selected concentrations of drugs. […] Post-treatment at selected times, the cells were harvested, washed with ice-cold PBS and used for protein or RNA purification as described below.
Protein immunoblotting: Total protein was extracted using ice-cold radio-immunoprecipitation assay (RIPA) buffer (Millipore Sigma) supplemented with Halt protease- and phosphatise-inhibitor cocktails (Fisher Scientific), 2 mM sodium orthovanadate (New England Biolabs, Inc., USA), and 5 mM sodium fluoride (Millipore Sigma) according to the manufacturer's protocol. Protein content in each sample was estimated using Bio-Rad Protein Assay (Bio-Rad, USA). Equal amounts of protein (20-30 μg) were separated on hand-cast SDS/PAGE (6-12%) mini-protein gels and transferred to 0.2 μm Immobilon-Psq polyvinylidene difluoride (PVDF) transfer membrane (Millipore Sigma). Membranes were blocked with 4% bovine serum albumin (BSA; Millipore Sigma) in TRIS-buffered saline (TBS) with 0.1% Tween-20 (TBS-T, Thermo Fisher Scientific) and probed overnight at 4° C. with the primary antibodies (FOXM1, Cell Signaling Technology (CST), Inc., USA; Cleaved Caspase-3, CST; β-actin, Thermo Fisher Scientific) diluted according to the manufacturer's protocol. […] After incubating membranes with the secondary antibodies, the membranes were then washed three times for 10 min each with TBST. Protein bands were developed using SuperSignal™ West Pico PLUS Chemiluminescent Substrate (Thermo Fisher Scientific) and detected using ChemiDoc Imaging System (Bio-Rad).

Series [3] has as its target T1, FOXM1. Further details: Total protein samples obtain from treated cells were analyzed for FOXM1 protein levels via immunoblotting; endogenous in cells. Particulars: solid cancer cell lines; cited from earlier work.
The target in series [4] is T1, FOXM1. The series can be described thus: FOXM1 protein levels by immunoblotting in leukemia/AML cell lines. In kind it is cell-based. Further details: Total protein samples obtain from treated cells were analyzed for FOXM1 protein levels via immunoblotting; endogenous in cells; host or cells: KG-1, HL-60, K562, THP-1 leukemia cell lines. How it is done:
[a] Leukemia cells, KG-1, HL-60 and K562 were treated with increasing concentrations of STL427944 for 24 hrs. […] [b] THP1 and KG-1 cells were treated with indicated concentrations of venetoclax and STL427944 alone or in combination for 24 hrs. [c] KG-1 and K562 cells were treated with indicated concentrations of cytarabine and STL427944 alone or in combination for 24 hrs.
FIG. 8. STL427944 treatment of human leukemia cell lines suppress FOXM1 protein expression. (a) STL427944 treatment of human leukemia cell lines inhibit FOXM1 protein expression and sensitize cells to venetoclax treatment. […] (b) Stable shRNA-mediated FOXM1 knockdown prominently sensitizes KG-1 cells to cytotoxic effect of venetoclax. (c, d) combined treatment with STL427944 and venetoclax suppresses FOXM1 in KG-1 and THP-1 cells and synergistically promotes cytotoxic effects similarly to FOXM1 knockdown. Total protein was isolated from cells immediately after the treatment and analyzed via immunoblotting with FOXM1 antibodies). Apoptosis induction was estimated based on caspase-3 cleavage.
FIGS. 9A and 9B: Novel FOXM1 inhibitor STL001 sensitizes Leukemia cells to chemotherapy agents. [a] Structural formula of novel FOXM1 inhibitor STL001. [b] Leukemia cells, KG-1, HL-60, and K562 were treated with increasing concentrations of STL001 for 24 hrs. […] [c] KG-1 cells were treated with indicated concentrations of Laptomycin B, Chloroquine, and STL001 for 24 hrs. […] [d] KG-1, HL-60, and K562 cells were treated with indicated concentrations of venetoclax and STL001 alone or in combination for 24 hrs. [e] KG-1, HL-60, and K562 cells were treated with indicated concentrations of cytarabine and STL alone or in combination for 24 hrs.
FIGS. 13A-13H STL001 is a novel FOXM1 inhibitor that sensitizes leukemia cells to standard cytotoxic and bcl2 inhibitor therapies. FIG. 13A AML cell line KG-1 treated with precursor compound STL427944. FIG. 3B AML cell lines KG-1, HL-60, and K562 were treated with increasing concentrations of STL001 for 24 h. Total protein samples obtained from treated cells were analyzed for FOXM1 protein levels using immunoblotting; β-actin was used as the internal loading control. FIG. 13C KG-1, HL-60, and K562 cells were treated with indicated concentrations of venetoclax and STL001 alone or in combination for 24 h. FIG. 13D KG-1, HL-60, and K562 cells were treated with indicated concentrations of cytarabine and STL001 alone or in combination for 24 h. […] FIG. 13E KG-1 cells were treated with indicated concentrations of Leptomycin B, Chloroquine, and STL001 for 24 h. Total protein samples obtained from treated cells were analyzed for FOXM1 protein levels via immunoblotting; β-actin was used as an internal loading control. FIG. 13F KG-1 cell lines with shRNA knockdown of FOXM1 were treated with venetoclax and STL001 and compared to parental cells. FIG. 13G Real-time PCR-based expression profiling for canonical FOXM1 target genes was performed on primary AML mononuclear cells (n=5) treated ex vivo with STL001 5 μM for 24 h. Mean and standard error of the delta Ct for DMSO or treatment group are plotted for each gene. P-value is estimated by two-tailed paired t-test. Asterisks denote P<0.05. FIG. 13H Treatment of peripheral blood mononuclear cells with STL001 for 24 h followed by immunohistochemistry for FOXM1. Slides were scanned on an Aperio AT2 brightfield scanner and images were analyzed using HALO 2.0 software. Hematoxylin counterstain was used to segment nuclei within the ROIs and to establish an accurate cell count. Percent cells with nuclear FOXM1 expression compared between DMSO and STL001 treated cells. P-value is based on one-tailed paired t-test.

In series [5] the target is T1, FOXM1. Set-up: Total protein samples obtain from treated cells were analyzed for FOXM1 protein levels via immunoblotting; endogenous in cells; host or cells: KG-1, HL-60, K562, THP-1 leukemia cell lines. The note with it: cited from earlier work.

Structures are written as SMILES. “Also recorded” adds a separate entry of the source.

With `O=C(Oc1cccc(/C=N/Nc2nc(Nc3ccccc3)nc(N3CCOCC3)n2)c1)c1ccco1` [STL427944], in series [1] (KG-1/THP-1 cells), the “apoptosis (caspase-3 cleavage) in combination with venetoclax” value was “synergetic induction of apoptosis”. Further, the “efficiency of sensitization to venetoclax treatment” value in series [1] (KG-1 cells, versus shRNA FOXM1 knockdown) is on record as “comparable to effects caused by shRNA-mediated FOXM1 knockdown”. Further, the “effect on cytotoxicity of chemotherapeutic drugs (venetoclax, cytarabine)” value in series [1] (THP1, KG-1, K562 cells, 24 hrs) is recorded as “enhances the cytotoxic effect of conventional chemotherapeutic drugs”. Besides, in series [2], the “efficacy in knocking down FOXM1 expression” value is “lesser efficacy as compared to STL001”. In addition, the “concentrations showing modest FOXM1 suppression” value in series [3] is 25 to 50 µM. For the same compound, the “concentration showing modest FOXM1 inhibition” value in series [4] (AML cell line KG-1) worked out at 25 µM. In series [4] (estimated), the “Potency in AML” value was “uM range”. In addition, the FOXM1 protein levels entry in series [4] (leukemia cell lines, increasing concentrations, 24 h) is reported as “dose-dependent suppression of FOXM1 protein levels; also recorded: efficiently reduces FOXM1 protein levels”. Moreover, the “sensitivity of treated human cancer cells to platinum-based agents, 5-fluorouracil, taxanes” value in series [5] (human cancer cells) is given as “increased sensitivity to cytotoxic effects of conventional chemotherapeutic treatments”. Besides, the “effect on FOXM1” value in series [5] (relocalization of nuclear FOXM1 to cytoplasm, degradation by autophagosomes) is on record as “selectively suppresses FOXM1”.
